The record followed here is patent US12168781B2, “Production method for T cells or NK cells, medium for culturing T cells or NK cells, method for culturing T cells or NK cells, method for maintaining undifferentiated state of undifferentiated T cells, and growth-accelerating agent for T cells or NK cells” (KIRIN HOLDINGS KABUSHIKI KAISHA, priority 2018, dated 2024).

One assay concerns stem cell memory T cells. The assay can be described thus: Proliferation of sorted stem cell memory T cells, trypan blue count. The conditions noted are these: 1 μM, stem cell memory T cells, 6, 9, 12 and 14 days, FIG. 18C. The class given is cell-based, human. The source says: NPL 4 reports that hierarchy exists in T cells (FIG. 18A). In this Example, a fraction in which berbamine acts in T cells was verified. As a method therefor, PBMCs (CTL, Inc.) derived from a healthy subject was washed with a staining solution (PBS containing 2% FBS), and then stained with CCR7-APC (BioLegend, 353214), CD45RA-BV510 (BioLegend, 304142), CD45RO-APC-Cy7 (BioLegend, 307228), CD95-PC-Cy7 (BioLegend, 305622), CD8β-PE (Beckman, IM2217U), and CD4-BV421 (BioLegend, 317434).
After washing, the cells were resuspended in the staining solution containing PI, and by using BD AriaII Cell Sorter (BD Bioscience), in the CD8β(+) cells, CCR7(+)CD45RA(+)CD95(−)CD45RO(−) was sorted as naive T cells, CCR7(+)CD45RA(+)CD95(+)CD45RO(+) was sorted as stem cell memory T cells, CCR7(+)CD45RA(−)CD45RO(+) was sorted as central memory T cells, and CCR7(−) CD45RA(−)CD45RO(+) was sorted as effector memory T cells.
The respective cells (about 3,000 cells/well) were seeded, and berbamine (BBM) at 1 μM or MilliQ water that is a solvent for the compound as a control was added thereto, and the cells were stimulated with CD3/CD28 Dynabeads (about 9,000 beads/well). The cells were cultured using the same culture medium as in Example 6.
After 6, 9, 12, and 14 days of culturing, the number of viable cells was counted by a trypan blue method. In a statistical analysis, a Student's t-test was used (*: p<0.05).

The subject of assay [1] is CD8beta(+)CD8alpha(+) T cells. The assay can be described thus: Long-term culturing of T cells obtained by feeder-free differentiation induction, trypan blue count. The class given is cell-based, human. The conditions noted are these: 1 μM, FIG. 14(B). How it is done:
The possibility of long-term culturing of T-iPS-T cells using berbamine was evaluated. First, T cells were induced from T-iPS cells without using a feeder. For the maintenance of iPS cells, StemFit AK02N medium (Ajinomo) was used for feeder-free iPS cells. The iPS cells were detached from the culture surface coated with iMatrix-511 using a dissociation agent [1× TrypLE Select (Thermo Fisher Scientific) was diluted to 1/2 with PBS, and a 0.5 mol/L EDTA solution (pH 8, Nacalai Tesque) was added thereto to give a final concentration of 0.5× TrypLE Select and 0.75 mM EDTA], and subcultured in a culture medium obtained by adding 10 μM Y-27632 to StemFit AK02N (37° C., 5% CO2). On the following day, the culture medium was replaced with Stemfit AK02N. This operation was repeated once a week to maintain the iPS cells.
Hematopoietic progenitor cells (HPCs) were produced by inducing the differentiation of iPS cells by an embryoid body formation method. The feeder-free iPS cells were detached with 0.5× TrypLE Select, and 0.75 mM EDTA, and then seeded at 2 to 3×10^5 cells/well in a 6-well plate (CORNING) subjected to an ultra-low adhesion treatment. By using Stemfit AK02N medium supplemented with 10 μM Y-27632 (Nacalai Tesque) and 10 μM CHIR99021 (Tocris Bioscience), the cells were cultured under low oxygen conditions (5% 02) (Day 0). […]

As to `COc1cc2c3cc1Oc1c(OC)c(OC)cc4c1[C@@H](Cc1ccc(O)c(c1)Oc1ccc(cc1)C[C@@H]3N(C)CC2)N(C)CC4` [berbamine], in the assay on stem cell memory T cells, the “number of viable cells compared with MilliQ water” value is reported as “significant enhancement of cell proliferation”. For the same compound, the “period for which the cells could be cultured” value in assay [1] (restimulated on day 14, 28, 42, MilliQ water control could not be cultured after day 42) was 56 days. Further, the “proliferation of the cells in long-term culturing” value in assay [1] (vs MilliQ water) is reported as “enhancement of the proliferation of T-iPS-T cells”.
